The text below walks through data of patent US20140162942A1, “INHIBITION OF CYP3A DRUG METABOLISM” (priority 2010, published 2014).

Molecules are shown by their SMILES. Like-named read-outs stand apart in the source and are kept apart here. Where only a bound is given, the exact number is not on record here.

The target of one series is T1, CYP2B6 (Homo sapiens, UniProt P20813).
T1 construct: Pooled human liver microsomes (from sixteen individuals) were used as the source of enzymes; tissue XenoTech, LLC; host or cells: human liver microsomes, pool of sixteen donors
T1 sequence (P20813 1-491): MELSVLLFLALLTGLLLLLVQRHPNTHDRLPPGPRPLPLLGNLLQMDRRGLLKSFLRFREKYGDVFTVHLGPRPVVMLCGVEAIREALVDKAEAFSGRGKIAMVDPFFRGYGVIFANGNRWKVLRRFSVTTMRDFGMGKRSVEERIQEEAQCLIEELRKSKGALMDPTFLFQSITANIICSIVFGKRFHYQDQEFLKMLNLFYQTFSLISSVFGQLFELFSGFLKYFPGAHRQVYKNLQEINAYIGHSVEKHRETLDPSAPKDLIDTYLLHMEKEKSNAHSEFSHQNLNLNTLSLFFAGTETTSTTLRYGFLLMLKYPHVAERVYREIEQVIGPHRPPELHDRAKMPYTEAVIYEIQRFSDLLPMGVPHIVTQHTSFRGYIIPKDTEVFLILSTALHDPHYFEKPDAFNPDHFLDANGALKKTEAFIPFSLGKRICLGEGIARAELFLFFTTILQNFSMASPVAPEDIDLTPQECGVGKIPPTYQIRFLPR
In words: CYP2B6 inhibition, bupropion hydroxylation in human liver microsomes. It is filed as in vitro ADME. Conditions: for Potential for Time-Dep. Inhibition: comparison with and without 30-minute pre-incubation; for inhibition at 5 min, 100 µM: human, pH 7.4, probe bupropion (hydroxylation). How it is done:
(§1) The basis for many of the following incubation conditions is described in the following references: Madan, et al., 2002,^(1) Huang, 2004,^(3) Ogilvie, et al., 2006,^(6) Pearce, et al., 1996,^(7) Tucker, et al., 2001,^(4) and Walsky and Obach, 2004.^(5) In general, incubations were conducted at approximately 37° C. in 400-μL incubation mixtures (target pH 7.4) containing high purity water, potassium phosphate buffer (50 mM), MgCl2 (3 mM), EDTA (1 mM), an NADPH-generating system [always the mixture of the following: NADP (1 mM), glucose-6-phosphate (5 mM), glucose-6-phosphate dehydrogenase (1 Unit/mL)], and marker substrate at the final concentrations indicated. Pooled human liver microsomes (from sixteen individuals) were used as the source of enzymes (Section 1.3.1.2). The concentrations of marker substrates were based on the Km and Vmax data that were determined previously (data not shown).
(§2) Due to the possibility that boceprevir may bind to microsomal protein or lipids, an attempt was made to design these experiments such that, in as many cases as possible, the microsomal protein, incubation time, and phosphate buffer concentration were 0.1 mg/mL, 5 minutes and 50 mM, respectively, for assays performed with human liver microsomes (Table 1). […] Since it is not imperative that the concentration of marker substrates be exactly equal to Km, the marker substrate concentrations were rounded up or down, as applicable, to simplify the experimental design (data not shown). […] Thus, the final incubation concentration of phenacetin was 60 μM (Table 1).
(§3) The ability of boceprevir to inhibit the CYP enzymes listed in Section 1.2.1 was investigated with a pool of sixteen individual human liver microsomal samples at the concentrations indicated in Table 1. Aliquots of the stock and/or working solutions of boceprevir were manually added to buffer mixtures containing the components described in Section 1.3.21. Incubation mixtures were prepared in bulk to obviate the need for directly pipetting very small volumes (i.e., 1 μL or less). Incubations containing no boceprevir (0 μM) contained the vehicle used to dissolve boceprevir (i.e., 1% methanol).
(§4) The Tecan liquid handling system conducted all remaining incubation steps, with the exception of the centrifugation. Aliquots of the buffer mixtures were then automatically added to 96-well plates at the appropriate locations in duplicate. Aliquots of a substrate working solution were added to the 96-well plates, prior to initiating reactions, to give the final concentrations indicated in Table 1. Reactions were initiated with the addition of an aliquot of an NADPH-generating system. Reactions were automatically terminated at approximately 5 minutes, by the addition of the appropriate internal standard (Table 5) and stop reagent; acetonitrile. Precipitated protein was removed by centrifugation (920 g for 10 minutes at 10° C.). Standards and quality control samples were similarly prepared with the addition of authentic metabolite standards.
To examine its ability to act as a time-dependent inhibitor, boceprevir (at the same concentrations used to evaluate direct inhibition) was pre-incubated at 37±1° C., in duplicate, with human liver microsomes and an NADPH-generating system for approximately 30 minutes. This pre-incubation allowed for the generation of intermediates that could inhibit human CYP enzymes. The pre-incubations were initiated with the addition of an aliquot of an NADPH-generating system. […] Reactions were automatically terminated, at approximately 5 minutes, by the addition of the appropriate internal standard (Table 5) and stop reagent; acetonitrile. Precipitated protein was removed by centrifugation (920 g for 10 minutes at 10° C.). Incubations containing no boceprevir (0 μM) and incubations that contained boceprevir but were not pre-incubated, served as negative controls.
(In general: Microsomes from liver hold many membrane-bound enzymes, among them those of drug oxidation.)

Another series addresses T2, CYP2C8 (Homo sapiens, UniProt P10632).
T2 construct: Pooled human liver microsomes (from sixteen individuals) were used as the source of enzymes; tissue XenoTech, LLC; host or cells: human liver microsomes, pool of sixteen donors
T2 sequence (P10632 1-490): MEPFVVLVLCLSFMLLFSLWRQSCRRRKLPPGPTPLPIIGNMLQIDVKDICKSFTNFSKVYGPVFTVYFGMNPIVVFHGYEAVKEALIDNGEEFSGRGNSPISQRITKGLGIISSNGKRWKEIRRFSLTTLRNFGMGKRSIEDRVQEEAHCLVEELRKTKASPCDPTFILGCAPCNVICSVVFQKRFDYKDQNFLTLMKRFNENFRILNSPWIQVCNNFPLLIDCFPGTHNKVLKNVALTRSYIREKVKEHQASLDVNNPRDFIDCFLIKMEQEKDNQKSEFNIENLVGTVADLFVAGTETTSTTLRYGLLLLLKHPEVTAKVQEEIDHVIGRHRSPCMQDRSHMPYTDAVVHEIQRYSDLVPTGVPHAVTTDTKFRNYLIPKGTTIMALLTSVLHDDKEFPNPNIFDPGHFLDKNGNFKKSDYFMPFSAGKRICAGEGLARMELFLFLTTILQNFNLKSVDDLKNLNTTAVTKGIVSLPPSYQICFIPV
In words: CYP2C8 inhibition, amodiaquine N-dealkylation in human liver microsomes. Format: in vitro ADME. The note with it: for Potential for Time-Dep. Inhibition: comparison with and without 30-minute pre-incubation. How it is done: as §1, §2, §3, §4
To examine its ability to act as a time-dependent inhibitor, boceprevir (at the same concentrations used to evaluate direct inhibition) was pre-incubated at 37±1° C., in duplicate, with human liver microsomes and an NADPH-generating system for approximately 30 minutes. This pre-incubation allowed for the generation of intermediates that could inhibit human CYP enzymes. The pre-incubations were initiated with the addition of an aliquot of an NADPH-generating system. […]

Where [1] appears, read: direct inhibition, zero-minute pre-incubation, pooled human liver microsomes.
Setting [2] is: time-dependent inhibition, 30-minute pre-incubation.

One may read the IC50 as the concentration at which inhibition is half-maximal. As to `CC(C)(C)NC(=O)NC(C(=O)N1CC2C([C@H]1C(=O)NC(CC1CCC1)C(=O)C(N)=O)C2(C)C)C(C)(C)C` (stereo partly drawn) [Boceprevir, (1R,2S,5S)—N-[(2Ξ)-4-amino-1-cyclobutyl-3,4-dioxobutan-2-yl]-3-{(2S)-2-[(tert-butylcarbamoyl)amino]-3,3-dimethylbutanoyl}-6,6-dimethyl-3-azabicyclo[3.1.0]hexane-2-carboxamide], the “Potential for Time-Dep. Inhibition” value is “little or no” at CYP2B6, “no discernable time-dependent inhibition” at CYP2B6 (listed as boceprevir), “little or no” at CYP2C8 and “no discernable time-dependent inhibition” on CYP2C8 (listed as boceprevir). Moreover, the IC50 at CYP2B6 (setting [1]), on CYP2B6 (setting [2]), at CYP2C8 (setting [1]) and against CYP2C8 (setting [2]) was more than 100 µM in each case. Besides, the inhibition at 5 min, 100 µM was found to be 2.3% on CYP2B6 (pooled human liver microsomes, direct inhibition, zero-minute pre-incubation, read-out: Max. Inhib. at 100 μM); 6.9% on CYP2B6 (pooled human liver microsomes, time-dependent inhibition, 30-minute pre-incubation, read-out: Maximum Inhibition at 100 μM); 25% on CYP2C8 (human, pooled human liver microsomes, pH 7.4, probe amodiaquine (N-dealkylation), direct inhibition, zero-minute pre-incubation, read-out: Max. Inhib. at 100 μM).
